Reference: PMC11555526, “Development of 2-Aminoadenine-Based Proteolysis-Targeting Chimeras (PROTACs) as Novel Potent Degraders of Monopolar Spindle 1 and Aurora Kinases” (ACS Pharmacology & Translational Science, 2024)
Several values for one entry are separate records, joined by “and”; a condition that tells them apart may be missing. Identical values can stand only once.

Assays:
[1] = target: T1, AURKA (MV4-11^AURKA-HiBiT cells) (Homo sapiens, UniProt O14965); assay: HiBiT assay, AURKA degradation; assay type: cell-based; details: for Dmax (maximal degradation) AURKA / DC50: 6 h treatment, MV4-11^AURKA-HiBiT cells; for DC50: read-out: DC50 (half-maximal degradation concentration) AURKA
T1 construct: expressed in transfected cells; host or cells: MV4-11, lentiviral transduction
T1 sequence (O14965 1-403): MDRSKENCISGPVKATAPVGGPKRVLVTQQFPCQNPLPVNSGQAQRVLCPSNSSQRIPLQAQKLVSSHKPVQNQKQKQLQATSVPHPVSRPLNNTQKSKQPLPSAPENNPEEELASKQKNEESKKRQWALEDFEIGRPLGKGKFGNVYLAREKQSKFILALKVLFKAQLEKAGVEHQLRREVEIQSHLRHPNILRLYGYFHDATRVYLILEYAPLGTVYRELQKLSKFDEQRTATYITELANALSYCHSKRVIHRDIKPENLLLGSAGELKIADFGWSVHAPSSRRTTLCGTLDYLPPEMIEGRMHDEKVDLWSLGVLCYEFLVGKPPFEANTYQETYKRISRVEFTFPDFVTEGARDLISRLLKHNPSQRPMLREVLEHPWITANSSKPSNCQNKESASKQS
How it was run: (§1)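 MV4-11 lines stably expressing HiBiT-tagged AURKA, AURKB or TTK (lentiviral) were treated with serial compound dilutions for the indicated times. Remaining tagged protein was read by lytic HiBiT luminescence, and DC50 was fitted with a four-parameter dose–response equation using concentrations showing sigmoidal behaviour.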

[2] = target: T2, TTK (MV4-11^HiBiT-TTK cells) (Homo sapiens, UniProt P33981); assay: HiBiT assay, TTK degradation; assay type: cell-based; set-up: key to Dmax (maximal degradation) TTK: compounds with degradation less than 15% reported as “inactive”; details: 6 h treatment, MV4-11^HiBiT-TTK cells; for DC50: read-out: DC50 (half-maximal degradation concentration) TTK
T2 construct: expressed in transfected cells; host or cells: MV4-11, lentiviral transduction (pRRL-PGK-HiBiT entry vector)
T2 sequence (P33981 1-857): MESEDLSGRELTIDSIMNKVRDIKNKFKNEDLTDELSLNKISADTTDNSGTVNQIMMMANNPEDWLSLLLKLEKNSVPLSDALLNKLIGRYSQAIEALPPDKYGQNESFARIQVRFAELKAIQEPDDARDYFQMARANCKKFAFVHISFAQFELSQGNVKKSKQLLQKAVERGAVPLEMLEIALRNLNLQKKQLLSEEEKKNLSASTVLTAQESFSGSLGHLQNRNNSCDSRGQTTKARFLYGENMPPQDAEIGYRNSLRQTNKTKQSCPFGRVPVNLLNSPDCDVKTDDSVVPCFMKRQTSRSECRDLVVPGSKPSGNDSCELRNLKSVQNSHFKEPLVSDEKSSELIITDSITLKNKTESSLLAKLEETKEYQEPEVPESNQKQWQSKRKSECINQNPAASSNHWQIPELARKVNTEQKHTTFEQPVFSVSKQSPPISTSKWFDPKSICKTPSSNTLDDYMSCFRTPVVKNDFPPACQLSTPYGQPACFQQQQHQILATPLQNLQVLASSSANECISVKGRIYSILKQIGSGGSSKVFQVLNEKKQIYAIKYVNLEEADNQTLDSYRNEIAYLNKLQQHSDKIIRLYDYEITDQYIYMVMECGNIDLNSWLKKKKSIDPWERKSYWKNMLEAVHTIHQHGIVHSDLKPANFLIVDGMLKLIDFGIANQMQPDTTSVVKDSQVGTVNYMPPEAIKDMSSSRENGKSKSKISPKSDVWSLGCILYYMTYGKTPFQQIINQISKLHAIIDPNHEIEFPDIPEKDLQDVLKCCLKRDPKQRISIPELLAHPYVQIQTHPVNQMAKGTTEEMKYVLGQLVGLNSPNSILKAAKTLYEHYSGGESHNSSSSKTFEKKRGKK
How it was run: as §1

Row | Dmax (maximal degradation) AURKA [1] | DC50 [1] | Dmax (maximal degradation) TTK [2] | DC50 [2] | efficiency of AURKA degradation (Dmax) relative to AURKB and TTK ([1]; HiBiT, 6 h) | selectivity of AURKA degradation (DC50) relative to AURKB and TTK ([1]; HiBiT, 6 h) | Structure (SMILES) | DC50 (half-maximal degradation concentration) TTK [2]
1 | 35.20% | 1700 nM | inactive | – | – | – | Cc1ncsc1-c1ccc(CNC(=O)[C@@H]2C[C@@H](O)CN2C(=O)[C@@H](NC(=O)CCCC(=O)N2CCN(c3ccc(Nc4nc(Nc5ccccc5S(=O)(=O)C(C)C)c5nc[nH]c5n4)cc3)CC2)C(C)(C)C)cc1 [Compound 44] | – (compounds with degradation less than 25% were not calculated and reported as “–”)
2 | 50.10% | 46 nM | 28.50% | 396 nM | – | – | CC(C)S(=O)(=O)c1ccccc1Nc1nc(Nc2ccc(N3CCN(C(=O)CCCC(=O)Nc4cccc5c4C(=O)N(C4CCC(=O)NC4=O)C5=O)CC3)cc2)nc2[nH]cnc12 (stereo not drawn) [Compound 14] | –
3 | 71% and 70.70% | 68 nM and 67.7 nM | 48.33% | 281 nM | 1.5–2.4 times | 3.7–4.2 fold | CC(C)S(=O)(=O)c1ccccc1Nc1nc(Nc2ccc(N3CCN(C(=O)CNC(=O)CCCC(=O)Nc4cccc5c4C(=O)N(C4CCC(=O)NC4=O)C5=O)CC3)cc2)nc2[nH]cnc12 (stereo not drawn) [Compound 20] | –
4 | 38.00% | 814 nM | 47.40% | 5710 nM | – | – | Cc1ncsc1-c1ccc(CNC(=O)[C@@H]2C[C@@H](O)CN2C(=O)[C@@H](NC(=O)COCCOCC(=O)N2CCN(c3ccc(Nc4nc(Nc5ccccc5S(=O)(=O)C(C)C)c5nc[nH]c5n4)cc3)CC2)C(C)(C)C)cc1 [Compound 49] | –
